Test results taken from patent US12427148B2, “Cancer treatment targeted to tumor adaptive responses to protein synthesis stress” (priority 2018, dated 2025).

How the values were obtained:
[1] = test system: RWPE-1 shPTEN;MYC^OE cells; assay: Apoptosis (annexin V-positive cells by flow cytometry) in engineered human prostate epithelial cells; format: cell-based; conditions: 500 nM ISRIB for 9 hours, shPTEN;MYC^OE cells relative to control samples
Experimental: FIGS. 4A and 4B. FIG. 4A depicts quantification of annexin V-positive cells analyzed by flow cytometry relative to control cells after treatment with DMSO or 500 nM ISRIB for 9 hours (n=3, mean±SEM) *P<0.05, t test. FIG. 4B depicts Cox proportional hazards regression results in a Forest plot of hazard ratios and 95% CI for factors associated with risk of clinical progression after surgery. Independent factors are tumor with PTEN loss/low P-eIF2α or PTEN loss/high P-eIF2α versus a reference group with normal PTEN expression; age in years; PSA in nanograms per milliliter; Gleason score>7 versus 6; and pathological stage T3-T4 versus T2 at the time of prostatectomy.
To extend these observations directly to human disease, human cell lines were created to mimic the genetic mouse models. Human RWPE-1 epithelial cells were created to stably knock down PTEN (shPTEN) with or without MYC overexpression. The combination of PTEN loss with increased MYC expression activated PERK signaling and P-eIF2α, showing that the adaptive response that we had observed in mice is also triggered in human prostate cells.

[2] = test system: Pten^fl/fl;Myc^Tg organoid cultures; assay: 35S methionine incorporation (newly synthesized proteins) in organoid cultures; format: cell-based, mouse; conditions: Pten^fl/fl;Myc^Tg cells, ISRIB treatment
Experimental: (§1) To evaluate the effects of these key oncogenes on global protein synthesis, newly synthesized proteins were assessed by incorporation of ^35S-labeled methionine in organoid cultures. Primary mouse three-dimensional organoid cultures were established to recapitulate the cellular environment of the murine prostate gland ex vivo. Organoids were derived from dissociated mouse prostate tissue containing a mixed population of luminal and basal cell types to mimic the histology observed in vivo. Western blot analysis confirmed that Myc^Tg expression and PTEN loss were evident and associated with increased GFP expression and AKT phosphorylation. […] On the contrary, it was observed that an unanticipated but significant dampening in global protein synthesis occurred in Ptenfl/fl;MycTg mice (P=0.01), despite the fact that these mice developed more aggressive PCa (FIG. 1D).
(§2) A general UPR response may promote adaptation to proteotoxic and ER stress, whereas the activation of P-eIF2α could place a direct brake on the overwhelming burden of protein synthesis that occurs during more aggressive tumorigenesis. To test this hypothesis, the organoid cultures were employed, which recapitulate the in vivo phenotype. […]

[3] = test system: pPCa-PDX tumor; assay: Preclinical trial in patient-derived xenograft from primary tumor; format: in vivo, mouse
Experimental: (§3) FIGS. 5A, 5B, 5C, 5D, 5E, 5F, and 5G. FIGS. 5A, 5B, and 5C depict quantification of protein expression as relative mean IF intensity normalized to adjacent stromal tissue for: FIG. 5A: benign, FIG. 5B PCa, and mPCa cell types. FIG. 5D and FIG. 5E depict Kaplan-Meier tumor survival curves for mice bearing pPCa (5D) or mPCa (5E) tumors treated with ISRIB (10 mg/kg) or vehicle (n=8, per cohort; **P=0.01, log-rank test). […] FIG. 5F depicts quantification of PDX tumors treated with vehicle or ISRIB (10 mg/kg); (n=3, ***P<0.001, t test). FIG. 5G depicts quantification of newly synthesized proteins in vivo, assessed by incorporation of OP-Puro within PDX treated with ISRIB (10 mg/kg) or vehicle (n=3 to 4 per arm, mean±SEM; *P<0.05, t test). n.s., not significant. MFI, mean fluorescence intensity.
(§4) Next, it was sought to functionally evaluate whether the UPR pathway could be targeted, specifically through P-eIF2α, in advanced human PCa. Although it is historically difficult to generate human prostate patient-derived xenograft (PDX) models, this was successfully achieved with similar characteristics to the Pten^fl/fl;Myc^Tg mice to assess the effects of ISRIB on cancer growth and mortality. In particular, two PDX models were generated: one derived from a primary tumor, herein referred to as pPCa, and one derived from a lymph node metastasis in the left internal iliac chain from the same patient, herein referred to as mPCa. […] A significant increase in P-eIF2α was observed only in the mPCa (P<0.01).
(§5) To test the therapeutic efficacy of ISRIB in human PCa, a preclinical trial was performed on the stably passaged PDX model.

[4] = test system: Pten^fl/fl mice prostate tumors; assay: Preclinical trial in mice with developed prostate tumors, MRI prostate volume; format: in vivo, mouse
Experimental: (§6) To evaluate the necessity of P-eIF2α for promoting tumor growth or maintenance in vivo, a preclinical trial was conducted. Mice with developed tumors were imaged by magnetic resonance imaging (MRI) to confirm a measurable baseline of prostate volume per mouse and then grouped into cohorts for either vehicle or ISRIB treatment daily over the course of 6 weeks.

[5] = test system: Pten^fl/fl;Myc^Tg mice prostate tumors; assay: as above; format: in vivo
Experimental: as §6

[6] = test system: PERK; conditions: PERK inhibitor as described; cited from earlier work
[7] = test system: mPCa-PDX tumor; assay: Preclinical trial in patient-derived xenograft from lymph node metastasis; format: in vivo, mouse
Experimental: as §3, §4, §5

[8] = test system: Pten^fl/fl organoid cultures; assay: 35S methionine incorporation (newly synthesized proteins) and ATF4 expression in organoid cultures; format: cell-based, mouse; conditions: ISRIB treatment
Experimental: as §1, §2

[9] = test system: mCRPC PDX; assay: Metastatic castration-resistant PCa PDX, survival and PSMA PET/CT imaging; format: in vivo, mouse
Text: In hormone-sensitive metastatic PCa, androgen deprivation therapy (ADT) remains the mainstay treatment; however, these tumors inevitably develop resistance to ADT and progress into the lethal form of metastatic castration-resistant PCa (mCRPC). Characterization of the hormone-sensitive metastatic disease has not been predictive of outcomes in the clinical setting of lethal mCRPC. To directly study the contribution of P-eIF2α to metastasis, an additional PDX (herein mCRPC PDX) was generated derived from a patient with mCRPC despite prolonged treatment with complete androgen blockage using leuprolide (ADT) and antiandrogen therapy (enzalutamide). Three weeks after implantation of the mCRPC tumor under the mouse renal capsule, tumor dissemination to the liver, distant kidney, lymph nodes, and spleen was observed.
To examine the role of P-eIF2α from the early stages of metastatic growth to late stages of dissemination, a prostate-specific membrane antigen [^68Ga-PSMA-11 PET/computed tomography (CT)] scan was used to trace the progression of very small metastases from early to late stages of dissemination, which were not visible by conventional imaging modalities such as ^18F-DG PET/CT. Prostate-specific membrane antigen (PSMA) is highly expressed on the surface of PCa cells and allows sensitive staging to evaluate therapy response in the clinical setting. […]

[10] = test system: mPCa PDX; assay: Newly synthesized proteins in vivo by OP-Puro incorporation in PDX; design: species or system mouse; conditions: ISRIB 10 mg/kg
Experimental: as §3
(§7) Next, it was determined whether a metastatic PCa tumor, harboring high MYC and loss of PTEN activity in a complex genetic background of human PCa, relies on eIF2α phosphorylation as an adaptive response to restrain global protein synthesis. Therefore, newly synthesized proteins in vivo were assessed by measuring the incorporation of O-propargyl-puromycin (OP-Puro) within the primary and metastatic tumor-derived PDXs, which have low or high P-eIF2α, respectively. […] Within the area of intratumor ATF4 loss, apoptosis and decreased proliferation assessed by TUNEL and Ki67 staining of mPCa PDX was observed.

[11] = test system: pPCa tumors; assay: as above; design: species or system mouse; conditions: ISRIB 10 mg/kg
Experimental: as §3, §7

[12] = pPCa-PDX, low P-eIF2α, ISRIB treatment

O=C(COc1ccc(Cl)cc1)NC1CCC(NC(=O)COc2ccc(Cl)cc2)CC1 (stereo not drawn) [ISRIB]
apoptosis (annexin V-positive cells) [1]: marked increase in apoptosis
newly synthesized proteins [2]: marked increase
effectiveness of ISRIB treatment (survival) ([3]; pPCa tumor, ISRIB 10 mg/kg): short-lived
cell death [3, 12]: no significant cell death
tumor size [3, 12]: did not show regression but stabilized with eventual tumor regrowth
increase in growth over individual baseline measurements ([4]; by 6 weeks): ~40%
tumor size by MRI ([4]; vehicle or daily ISRIB, 3 weeks): continued tumor growth
tumor size by MRI ([5]; ISRIB-treated Pten^fl/fl;Myc^Tg mice, by 6 weeks): no progression in tumor size
toxicity ([5]; Pten^fl/fl;Myc^Tg mice, daily ISRIB treatment): no signs of toxicity
tumor size by MRI ([5]; Pten^fl/fl;Myc^Tg mice, daily ISRIB, 3 weeks): tumor regression within 3 weeks
immune cell infiltration (CD45) ([5]; after 3 weeks of ISRIB treatment, regardless of prostate tumor genotype): no significant changes
IC50 [6]: 5 nM
cell death: TUNEL staining and cleaved caspase 3 expression ([7]; mPCa-PDX, after 9 days of ISRIB treatment): increased
tumor size ([7]; mPCa-PDX, after 9 days of ISRIB treatment, P<0.01): significant tumor regression
survival ([7]; mice bearing metastatic tumor with high P-eIF2α, ISRIB 10 mg/kg, P<0.01): significantly prolonged survival
ATF4 expression [8]: decrease
protein synthesis (newly synthesized proteins) [8]: not altered
survival ([9]; mCRPC PDX mice bearing distal metastatic lesions, P=0.01): significantly prolonged survival
metastases at distal sites by PSMA PET/CT ([9]; mCRPC PDX mice treated with ISRIB): substantial metastatic regression
global protein synthesis (OP-Puro incorporation) [10]: marked increase
global protein synthesis (OP-Puro incorporation) [11]: no change
